According to patent publication US20050032646A1, “Agents for the regulation of gametophytic self-incompatibility and a control method for the breakdown of gametophytic self-incompatibility using the agents” (priority 2002, published 2005):

Assays:
[1] = test system: style-specific S RNase of Fuji apple; experiment: Inhibition of the activity of a style-specific S RNase by the agents; format: biochemical; conditions: optical density at 260 nm (A260), agent 2.0 mM, no treatment 1.10
Experimental: Inhibition of S RNase activity by an agent of the present invention was measured as follows: The standard solution of 500 μL of 10 mM sodium phosphate (pH 7.0) with an agent (2.0 mM), and 500 μL of torula yeast rRNA (5 mg/mL) was pre-incubated for 10 min at 37° C. To the substrate solution, the 20 μL of the style-specific S RNase (200 ng) of Fuji apple was added, then the solution was incubated for 30 min at 37° C. A fraction of 200 μL was collected and 40 μL of stop buffer (ice-cold 25% HCIO4, 0.75% uranyl acetate) was added, then mixed and centrifuged at 12,000 rpm for 5 min. And 50 μL of the supernatant was diluted with 950 μL of dd H2O, then the solution was centrifuged and measured the optical density at 260 nm (A260) (Singh A. et al., Plant Physilolgy, 96: 61-68,1991).

[2] = test system: Hongro apple; experiment: Breakdown of the self-incompatibility in Hongro apple (self-pollination rate, field); format: in vivo; conditions: 25 days after the treatment
Experimental: In the field application experiment, Hongro apple (the Rosaceae) which has a very low self-pollination rate (<5%) was isolated single-genetically by covering up whole plants with a fine-meshed net to exclude any pollinating insects. The agent of the present invention was treated enough to get-wet flowers at various concentrations with a micro-spray at 9:00-11:00 AM. The target of the agent was the first-blooming primary apple flower. The self-pollination rate was investigated 25 days after the treatment and compared with no treatment and artificial cross-pollination.

[3] = test system: Hongro apple flowers; experiment: Side-effect of the agents toward Hongro apple flowers; format: in vivo; design: key: 0: no side-effect is observed, and it is same as no treatment of the agents; 1: the side-effect are observed in flowers, but they recover to normal fruition in a week; 2: a fall-out of flowers and 10% decrease in fruition rate; 3: about 40% loss; 4: 60% loss; 5: a severe loss in fruition
Experimental: To investigate the side-effect of the agent, various concentrations of the agents were treated to the flowers of Hongro apple.

[4] = test system: 20-Century pear; experiment: Breakdown of the self-incompatibility in 20-century pear (fertilization rate, field); format: in vivo; conditions: 600 μM, sprayed 5 and 2 days before full bloom, 14 days after the treatment
Experimental: In a field test, 20-Century pear (the Rosaceae) which has self-incompatibility system was isolated single-genetically by covering up selected branches or whole plants with a fine-meshed net to exclude any pollinating insects. The aqueous of 600 μM solution of an agent of the present invention was treated enough to get-wet flowers with a micro-spray at 9:00-11:00 AM. The agent solution was micro-sprayed 2 times; first at 5 days before full bloom and second at 2 days before full bloom. The reference was artificial cross-pollination at full bloom. The fertilization rate was investigated 14 days after the treatment and compared with no treatment and artificial cross-pollination.

[5] = test system: Safinia purple; experiment: Breakdown of self-incompatibility and seed production of Safinia purple; format: in vivo, Safinia purple (petunia)
Experimental: To establish the application method of the SI suppressing agent for the seed production, a field experiment was performed with Safinia purple ( the Solanaceae, a petunia developed by Suntory Ltd).
To a 15 cm-radii round pot, were added fine soil (pH 5.6) and 2 gr of complex fertilizer (including N, P, K 8% each) and they were mixed well. Safinia purple of 10 cm height were planted and raised in a green house for 2 weeks. At the period of 30 % bloom the diluted aqueous solutions of Zn(II) propionate or Cu(II) propionate agent were micro-sprayed enough to wet a flower and a style(3 ml). Two days after treatment of the agent, self-pollen was pollinated to its own style and the seed production was investigated. The experiments were repeated twice.

CCC(=O)[O-].CCC(=O)[O-].[Zn+2] [Zn(II) Propionate]
OD (2.0 mM) [1]: 0.69 | self-pollination rate ([2]; concentration 0.01 mM): >10% | self-pollination rate ([2]; concentration 0.03 mM): >30% | self-pollination rate ([2]; concentration 0.10 mM): >50% | self-pollination rate ([2]; concentration 0.30 mM): >50% | self-pollination rate ([2]; concentration 1.0 mM): >50% | side-effect index ([3]; 1.0 mM): 0 | side-effect index ([3]; 5.0 mM): 0 | side-effect index ([3]; 20.0 mM): 1 | fertilization rate [4]: 45% | seed production relative (%) to control ([5]; concn 10 μM): 514.3% | self-pollination pollination ratio (%) ([5]; concn 10 μM): 29.4% | self-pollination relative (%) to control ([5]; concn 10 μM): 1000% | seed production relative (%) to control ([5]; concn 30 μM): 442.9% | self-pollination pollination ratio (%) ([5]; concn 30 μM): 42.4% | self-pollination relative (%) to control ([5]; concn 30 μM): 1400% | seed production relative (%) to control ([5]; concn 100 μM): 1057.1% | self-pollination pollination ratio (%) ([5]; concn 100 μM): 47.1% | self-pollination relative (%) to control ([5]; concn 100 μM): 1600% | seed production relative (%) to control ([5]; concn 300 μM): 1128.6% | self-pollination pollination ratio (%) ([5]; concn 300 μM): 63.6% | self-pollination relative (%) to control ([5]; concn 300 μM): 2100% | seed production relative (%) to control ([5]; concn 1000 μM): 1628.6% | self-pollination pollination ratio (%) ([5]; concn 1000 μM): 64.5% | self-pollination relative (%) to control ([5]; concn 1000 μM): 2000%
